Measurements: PMC11233931, “Remodeling tumor‐associated macrophage for anti‐cancer effects by rational design of irreversible inhibition of mitogen‐activated protein kinase‐activated protein kinase 2” (MedComm, 2024)

How the values were obtained:
Assay in all cases: Eurofins kinase selectivity profile against 380 other human recombinant kinases (Table S2)
Type in all cases: biochemical
[1] = biological target: T1, 380 human recombinant protein kinases (Homo sapiens, UniProt Q92519); details: TRB2(h), read-out: Inhibition rate (%)
T1 construct: purchased Eurofins (Celle Lévescault)
T1 sequence (Q92519 1-343): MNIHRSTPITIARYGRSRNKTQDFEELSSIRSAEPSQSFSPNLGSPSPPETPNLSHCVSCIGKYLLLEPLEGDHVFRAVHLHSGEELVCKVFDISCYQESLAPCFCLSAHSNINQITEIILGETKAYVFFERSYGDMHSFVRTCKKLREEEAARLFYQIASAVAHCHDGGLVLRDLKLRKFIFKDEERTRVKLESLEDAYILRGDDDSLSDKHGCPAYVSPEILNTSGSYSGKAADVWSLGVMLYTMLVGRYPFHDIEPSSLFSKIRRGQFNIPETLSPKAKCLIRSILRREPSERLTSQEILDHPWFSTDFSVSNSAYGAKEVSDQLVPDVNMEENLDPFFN
Outline: (§1)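 Profiling against 380 human recombinant kinases carried out by Eurofins at various compound concentrations.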

[2] = biological target: T2, 380 human recombinant protein kinases (Homo sapiens, UniProt Q13976); details: PKG1α(h), read-out: Inhibition rate
T2 construct: purchased Eurofins (Celle Lévescault)
T2 sequence (Q13976 1-671): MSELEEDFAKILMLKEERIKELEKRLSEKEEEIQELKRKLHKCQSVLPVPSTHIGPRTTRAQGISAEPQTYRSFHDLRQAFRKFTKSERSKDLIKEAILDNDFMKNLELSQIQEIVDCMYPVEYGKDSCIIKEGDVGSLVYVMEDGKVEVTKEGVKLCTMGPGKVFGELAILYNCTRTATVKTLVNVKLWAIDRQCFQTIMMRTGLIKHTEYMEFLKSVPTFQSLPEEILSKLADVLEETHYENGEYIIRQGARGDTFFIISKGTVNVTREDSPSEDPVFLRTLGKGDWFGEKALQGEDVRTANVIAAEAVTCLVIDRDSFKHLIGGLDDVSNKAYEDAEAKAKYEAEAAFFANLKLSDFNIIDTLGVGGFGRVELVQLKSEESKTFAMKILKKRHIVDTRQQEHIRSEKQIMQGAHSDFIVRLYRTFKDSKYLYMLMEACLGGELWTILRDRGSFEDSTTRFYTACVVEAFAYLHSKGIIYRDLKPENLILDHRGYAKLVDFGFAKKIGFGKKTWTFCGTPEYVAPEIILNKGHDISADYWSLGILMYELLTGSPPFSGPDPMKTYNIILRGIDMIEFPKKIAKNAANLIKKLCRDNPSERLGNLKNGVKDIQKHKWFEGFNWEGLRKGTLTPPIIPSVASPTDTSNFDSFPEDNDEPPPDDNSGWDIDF
Outline: as §1

[3] = biological target: T3, 380 human recombinant protein kinases (Homo sapiens, UniProt P53350); details: Plk1(h), read-out: Inhibition rate
T3 construct: purchased Eurofins (Celle Lévescault)
T3 sequence (P53350 whole entry): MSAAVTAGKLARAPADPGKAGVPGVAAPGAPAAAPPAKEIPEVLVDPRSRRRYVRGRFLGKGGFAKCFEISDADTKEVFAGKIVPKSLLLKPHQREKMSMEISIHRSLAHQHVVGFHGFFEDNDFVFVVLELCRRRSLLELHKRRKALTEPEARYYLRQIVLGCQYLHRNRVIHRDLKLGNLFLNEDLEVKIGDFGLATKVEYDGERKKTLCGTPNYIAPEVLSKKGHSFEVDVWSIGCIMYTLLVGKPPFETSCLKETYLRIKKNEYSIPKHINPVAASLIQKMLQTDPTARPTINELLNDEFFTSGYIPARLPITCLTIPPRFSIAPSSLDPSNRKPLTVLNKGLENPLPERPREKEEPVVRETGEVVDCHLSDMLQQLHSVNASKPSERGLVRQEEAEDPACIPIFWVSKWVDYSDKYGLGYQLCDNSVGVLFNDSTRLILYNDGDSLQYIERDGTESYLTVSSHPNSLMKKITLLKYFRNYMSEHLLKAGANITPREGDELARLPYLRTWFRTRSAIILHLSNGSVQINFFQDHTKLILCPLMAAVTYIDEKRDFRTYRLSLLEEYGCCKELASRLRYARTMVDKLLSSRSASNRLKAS
Outline: as §1

[4] = biological target: T4, 380 human recombinant protein kinases (Homo sapiens, UniProt Q9H0K1); details: SIK2(h), read-out: Inhibition rate (%)
T4 construct: purchased Eurofins (Celle Lévescault)
T4 sequence (Q9H0K1 whole entry): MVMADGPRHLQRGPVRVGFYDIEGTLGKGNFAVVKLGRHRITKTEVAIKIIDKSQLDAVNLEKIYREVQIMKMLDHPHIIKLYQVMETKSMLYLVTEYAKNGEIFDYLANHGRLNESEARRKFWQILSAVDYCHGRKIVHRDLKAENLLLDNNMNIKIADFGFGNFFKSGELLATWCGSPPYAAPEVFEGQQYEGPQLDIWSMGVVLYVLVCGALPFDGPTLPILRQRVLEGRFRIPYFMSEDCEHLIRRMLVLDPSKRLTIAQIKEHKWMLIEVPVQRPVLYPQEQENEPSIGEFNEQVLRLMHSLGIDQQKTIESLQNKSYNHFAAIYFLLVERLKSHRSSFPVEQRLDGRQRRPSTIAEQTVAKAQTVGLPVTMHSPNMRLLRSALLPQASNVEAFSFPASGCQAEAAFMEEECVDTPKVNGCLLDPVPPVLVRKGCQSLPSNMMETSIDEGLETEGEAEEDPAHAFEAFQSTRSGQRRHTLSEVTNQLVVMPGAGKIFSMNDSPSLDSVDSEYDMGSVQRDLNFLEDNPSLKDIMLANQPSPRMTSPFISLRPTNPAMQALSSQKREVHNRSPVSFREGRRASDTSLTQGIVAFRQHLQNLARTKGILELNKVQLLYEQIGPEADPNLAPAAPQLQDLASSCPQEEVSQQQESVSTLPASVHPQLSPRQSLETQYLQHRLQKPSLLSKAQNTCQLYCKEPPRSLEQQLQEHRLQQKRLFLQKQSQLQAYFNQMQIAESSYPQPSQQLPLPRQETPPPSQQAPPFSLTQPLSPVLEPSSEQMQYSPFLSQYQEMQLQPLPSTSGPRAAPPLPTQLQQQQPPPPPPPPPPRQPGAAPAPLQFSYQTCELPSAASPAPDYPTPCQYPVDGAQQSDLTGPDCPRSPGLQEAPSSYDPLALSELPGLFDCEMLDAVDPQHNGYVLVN
Outline: as §1

[5] = biological target: T5, 380 human recombinant protein kinases (Homo sapiens, UniProt Q13464); details: ROCK-I(h), read-out: Inhibition rate
T5 construct: purchased Eurofins (Celle Lévescault)
T5 sequence (Q13464 whole entry): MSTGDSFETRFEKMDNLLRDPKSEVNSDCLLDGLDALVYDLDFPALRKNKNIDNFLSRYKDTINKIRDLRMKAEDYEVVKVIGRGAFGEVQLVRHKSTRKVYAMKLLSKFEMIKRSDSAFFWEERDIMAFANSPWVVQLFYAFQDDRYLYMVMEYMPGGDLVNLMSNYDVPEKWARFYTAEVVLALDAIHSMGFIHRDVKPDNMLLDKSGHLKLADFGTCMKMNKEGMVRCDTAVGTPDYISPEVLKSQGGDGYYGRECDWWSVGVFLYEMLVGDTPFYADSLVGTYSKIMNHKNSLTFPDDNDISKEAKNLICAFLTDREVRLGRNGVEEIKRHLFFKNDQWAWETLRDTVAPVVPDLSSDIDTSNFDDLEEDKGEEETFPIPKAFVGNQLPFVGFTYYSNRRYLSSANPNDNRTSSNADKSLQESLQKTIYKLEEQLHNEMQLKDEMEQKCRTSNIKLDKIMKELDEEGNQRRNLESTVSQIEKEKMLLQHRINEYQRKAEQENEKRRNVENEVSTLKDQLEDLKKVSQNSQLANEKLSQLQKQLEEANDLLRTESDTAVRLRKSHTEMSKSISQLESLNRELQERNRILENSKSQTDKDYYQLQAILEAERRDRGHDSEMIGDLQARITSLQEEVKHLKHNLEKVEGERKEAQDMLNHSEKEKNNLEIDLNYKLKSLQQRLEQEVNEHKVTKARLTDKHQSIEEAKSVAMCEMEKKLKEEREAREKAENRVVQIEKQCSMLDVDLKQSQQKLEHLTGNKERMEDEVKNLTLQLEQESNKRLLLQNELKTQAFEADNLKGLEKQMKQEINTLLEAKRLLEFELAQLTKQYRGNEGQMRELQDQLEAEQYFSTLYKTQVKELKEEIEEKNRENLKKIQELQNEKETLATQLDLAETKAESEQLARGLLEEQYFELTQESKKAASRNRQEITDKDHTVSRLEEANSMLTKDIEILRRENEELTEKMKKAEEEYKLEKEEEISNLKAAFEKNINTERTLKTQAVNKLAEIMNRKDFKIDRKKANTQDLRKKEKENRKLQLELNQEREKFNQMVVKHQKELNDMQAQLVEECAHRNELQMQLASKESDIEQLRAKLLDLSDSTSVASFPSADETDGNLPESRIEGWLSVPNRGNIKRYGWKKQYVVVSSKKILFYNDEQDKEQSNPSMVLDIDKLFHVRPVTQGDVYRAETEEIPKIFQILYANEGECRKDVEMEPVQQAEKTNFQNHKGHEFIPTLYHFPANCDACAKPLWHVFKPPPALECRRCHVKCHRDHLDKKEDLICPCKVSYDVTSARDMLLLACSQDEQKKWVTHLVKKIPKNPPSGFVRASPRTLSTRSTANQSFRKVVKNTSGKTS
Outline: as §1

[6] = biological target: T6, 380 human recombinant protein kinases (Homo sapiens, UniProt Q9P1W9); details: Pim-2(h), read-out: Inhibition rate
T6 construct: purchased Eurofins (Celle Lévescault)
T6 sequence (Q9P1W9 whole entry): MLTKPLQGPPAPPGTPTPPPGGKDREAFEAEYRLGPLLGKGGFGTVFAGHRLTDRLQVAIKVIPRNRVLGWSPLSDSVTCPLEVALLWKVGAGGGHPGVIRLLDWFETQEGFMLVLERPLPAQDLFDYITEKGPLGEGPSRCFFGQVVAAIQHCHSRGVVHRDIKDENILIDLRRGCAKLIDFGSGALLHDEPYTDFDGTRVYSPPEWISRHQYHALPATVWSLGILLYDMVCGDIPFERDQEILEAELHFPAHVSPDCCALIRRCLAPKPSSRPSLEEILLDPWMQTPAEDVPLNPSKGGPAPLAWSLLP
Outline: as §1

[7] = biological target: T7, 380 human recombinant protein kinases (Homo sapiens, UniProt Q12851); details: GCK(h), read-out: Inhibition rate
T7 construct: purchased Eurofins (Celle Lévescault)
T7 sequence (Q12851 1-820): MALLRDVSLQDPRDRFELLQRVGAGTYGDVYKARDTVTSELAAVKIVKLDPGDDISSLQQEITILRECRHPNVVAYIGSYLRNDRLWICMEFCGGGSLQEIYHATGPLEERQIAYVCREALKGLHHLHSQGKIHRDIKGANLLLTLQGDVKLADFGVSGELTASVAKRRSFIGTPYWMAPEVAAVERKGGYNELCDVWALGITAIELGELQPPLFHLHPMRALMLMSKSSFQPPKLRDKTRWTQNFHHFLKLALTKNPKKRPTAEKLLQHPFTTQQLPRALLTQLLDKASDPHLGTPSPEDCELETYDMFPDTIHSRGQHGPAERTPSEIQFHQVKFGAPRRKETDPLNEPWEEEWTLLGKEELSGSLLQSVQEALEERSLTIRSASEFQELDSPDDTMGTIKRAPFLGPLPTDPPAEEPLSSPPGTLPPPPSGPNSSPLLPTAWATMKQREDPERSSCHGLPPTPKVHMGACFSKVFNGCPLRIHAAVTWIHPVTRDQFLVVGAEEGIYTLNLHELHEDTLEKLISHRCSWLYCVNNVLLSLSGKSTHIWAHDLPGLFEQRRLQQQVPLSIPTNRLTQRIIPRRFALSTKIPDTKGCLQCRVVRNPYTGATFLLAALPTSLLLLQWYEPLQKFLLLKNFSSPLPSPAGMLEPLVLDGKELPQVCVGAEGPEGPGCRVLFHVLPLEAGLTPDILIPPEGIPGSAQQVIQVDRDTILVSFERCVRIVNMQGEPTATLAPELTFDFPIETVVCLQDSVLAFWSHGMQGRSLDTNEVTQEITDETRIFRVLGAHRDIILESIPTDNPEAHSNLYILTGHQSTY
Outline: as §1

C=CC(=O)Nc1cc(-c2cc(-c3cc4c([nH]3)CCNC4=O)ccn2)ccc1OC(F)(F)F [compound 11]
inhibition at 0.01 µM ([1]; 10 nM): 29%
inhibition at 0.1 µM ([1]; 100 nM): 58%
inhibition at 1 µM ([1]; 1000 nM): 85%
inhibition at 0.01 µM ([2]; 10 nM): 1%
inhibition at 0.1 µM ([2]; 100 nM): -4%
inhibition at 1 µM ([2]; 1000 nM): 8%
inhibition at 0.01 µM ([3]; 10 nM): 13%
inhibition at 0.1 µM ([3]; 100 nM): 15%
inhibition at 1 µM ([3]; 1000 nM): 13%
inhibition at 0.01 µM ([4]; 10 nM): 2%
inhibition at 0.1 µM ([4]; 100 nM): 4%
inhibition at 1 µM ([4]; 1000 nM): 8%
inhibition at 0.01 µM ([5]; 10 nM): 2%
inhibition at 0.1 µM ([5]; 100 nM): -1%
inhibition at 1 µM ([5]; 1000 nM): -7%
inhibition at 0.01 µM ([6]; 10 nM): -3%
inhibition at 0.1 µM ([6]; 100 nM): 5%
inhibition at 1 µM ([6]; 1000 nM): 6%
inhibition at 0.01 µM ([7]; 10 nM): -2%
inhibition at 0.1 µM ([7]; 100 nM): -9%
inhibition at 1 µM ([7]; 1000 nM): 17%
